ChEMBL document CHEMBL1133318, “Isoniazid-related copper(II) and nickel(II) complexes with antimycobacterial in vitro activity. Part 9” (Bioorg Med Chem Lett, 2000)
Converted amounts (≈) assume the structure as drawn.

Columns and labels:
[1] = test system: Mycobacterium tuberculosis; test: In vitro antimicrobacterial activity to inhibit 90% of Mycobacterium tuberculosis H37Rv (Rifampin and Isoniazid susceptible ATCC 27294 strain), relative to that of controls; type: functional
[2] = test system: Mycobacterium tuberculosis; test: In vitro anti-mycobacterial activity against Mycobacterium tuberculosis H37Rv (Rifampin and Isoniazid susceptible ATCC 27294 strain); type: functional; set-up: concentration or dose not given beside the values
Mycobacterium avium = test: In vitro anti-mycobacterial activity against Mycobacterium avium at 12.5 ug/mL; type: functional
[3] = Safety index from cytotoxicity to that of minimal inhibitory concentration; type: toxicity; conditions: read-out: S.I
Vero = test: Compound was tested for its cytotoxicity on Vero cells; type: functional, cell-based; conditions: Chlorocebus sabaeus

Structure (SMILES)	MIC [1] [µg/mL]	Inhibition [2] [%]	inhibition at 12.5 µg/mL (Mycobacterium avium) [%]	selectivity ratio [3]	IC50 (Vero) [µg/mL]
COc1ccc(/C=N/NC(=O)c2ccncc2)cc1F	< 0.2	99	–	–	–
O=C(N/N=C/c1ccc(C(F)(F)F)cc1)c1ccncc1	< 0.2	100	82	–	–
O=C(N/N=C/c1ccccc1F)c1ccncc1	0.05 (≈ 0.206 µM)	100	–	168	8.4 (≈ 34.5 µM)
C/C(=N\NC(=O)c1ccncc1)c1ccc(Cl)c(Cl)c1	< 0.2	100	–	–	–
O=C(N/N=C(\c1ccccc1)C(F)(F)F)c1ccncc1	6.25 (≈ 21.3 µM)	100	–	–	–
C/C(=N\NC(=O)c1ccncc1)C(F)(F)F	0.05 (≈ 0.216 µM)	99	–	–	–
O=C(N/N=C/C(F)(F)F)c1ccncc1	0.05 (≈ 0.23 µM)	100	–	–	–
C/C(=N\NC(=O)c1ccncc1)c1ccccc1F	0.2 (≈ 0.777 µM)	100	–	> 625	> 125
C/C=N/NC(=O)c1ccncc1	0.025 (≈ 0.153 µM)	99	–	–	–
C/C(=N\NC(=O)c1ccncc1)c1ccc(F)cc1	< 0.2	99	–	> 50	> 10
O=C(N/N=C/c1cccc(F)c1)c1ccncc1	< 0.2	99	82	> 31.2	> 6.25
O=C(N/N=C/c1cccc(C(F)(F)F)c1)c1ccncc1	0.1 (≈ 0.341 µM)	99	–	> 100	> 10
C/C(=N\NC(=O)c1ccncc1)c1cccc(F)c1	< 0.05	100	–	–	–
NNC(=O)c1ccncc1 [ISONIAZID]	0.05 (≈ 0.365 µM)	–	–	–	> 1000
CO[C@H]1/C=C/O[C@@]2(C)Oc3c(C)c(O)c4c(O)c(c(/C=N/N5CCN(C)CC5)c(O)c4c3C2=O)NC(=O)/C(C)=C\C=C\[C@H](C)[C@H](O)[C@@H](C)[C@@H](O)[C@@H](C)[C@H](OC(C)=O)[C@@H]1C [RIFAMPIN]	0.06 (≈ 0.0729 µM)	–	–	–	147 (≈ 179 µM)
